Experimental data taken from publication PMC6278353 (Molecules, 2018).

Tests used:
[1] = Steady-state trough serum vancomycin concentration in DFI patients and nondiabetic patients with pneumonia; assay type: in vivo, human; conditions: 1g q12h; for Trough Concentration of vancomycin: mean ± SD, SD
Procedure: Clinical samples were collected at Air Force General Hospital, PLA. […] Human blank serum was obtained from healthy blood donors not using vancomycin (Air Force General Hospital, PLA.). The study was approved by the hospital ethics committee. Every patient was given a sufficient description of the study and signed an informed consent prior to the study.
The pretreatment followed for all samples was 10 μL of the IS was added to 20 μL of the standard and unknown serum samples and mixed vigorously for 20 s. Five-hundred microliters of acetonitrile was added, vortexed for 1 min, and centrifuged for 6 min at 12,000 rpm. After transferring the supernatant to a fresh centrifuge tube, it was evaporated to dryness under a stream of nitrogen at room temperature. Two-hundred microliters of mobile phase was added to the resulting residue and vortexed for 1 min; 100 μL was analyzed.
Fifty diabetes mellitus type 2 patients with known or suspected Gram-positive DFI (Wagner score grade 3/4, equivalent to Texas classification of at least B3), and 50 nondiabetic patients with pneumonia requiring antibiotic therapy from 2014 to 2016 were included. […] The estimated ClCr was calculated from serum creatinine using the Cockcroft-Gault formula [29]. CrCl = (140-age in years) × body weight in kg/(serum creatinine in […]) × 0.85 for females). Statistical analysis was performed by SPSS 25.0.

[2] = Stability of vancomycin in serum under various storage conditions (QC samples, HPLC-Q-trap-MS); assay type: in vitro ADME, human; conditions: serum at 4 °C and 25 °C for 24 h, after three freezing and thawing cycles and stored at −80 °C for 30 days; three concentrations
Procedure: The IS working solution was diluted with deionized water to give a final concentration of 100 ng/mL. Quality control (QC) samples were prepared in 100 μL of blank serum by adding 10 μL of serially diluted solutions of the substance to determine the limit of quantification, as well as 2 ng/mL (low), 20 ng/mL (medium), and 400 ng/mL (high) concentrations. The L, M, and H of QCs were analyzed at least in duplicate. All solutions were stored at −20 °C and brought to room temperature before use.
The chromatographic separation was performed on an Agilent ZORBAX SB-C18 (4.6 × 150 mm, 5 μm). The mobile phase consisted of water (containing 0.1% formic acid, v/v) and acetonitrile (containing 0.1% formic acid, v/v) and the flow rate was set at 0.5 mL/min. An isocratic elution was performed with 30% of acetonitrile. The total run time was 8 min. The injection volume was 10 μL. […]
The pretreatment followed for all samples was 10 μL of the IS was added to 20 μL of the standard and unknown serum samples and mixed vigorously for 20 s. […] Two-hundred microliters of mobile phase was added to the resulting residue and vortexed for 1 min; 100 μL was analyzed.
For the bench-top stability during handing, QC samples were prepared and kept room temperature (25 °C) for 6 h. […] Stability of sample in autosampler was determined by analyzing the targets after kept in an autosampler at room temperature for 12 h.

Structure (SMILES): CN[C@H](CC(C)C)C(=O)N[C@H]1C(=O)N[C@@H](CC(N)=O)C(=O)N[C@H]2C(=O)N[C@H]3C(=O)N[C@H](C(=O)N[C@H](C(=O)O)c4cc(O)cc(O)c4-c4cc3ccc4O)[C@H](O)c3ccc(c(Cl)c3)Oc3cc2cc(c3O[C@@H]2O[C@H](CO)[C@@H](O)[C@H](O)[C@H]2O[C@H]2C[C@](C)(N)[C@H](O)[C@H](C)O2)Oc2ccc(cc2Cl)[C@H]1O [vancomycin, Vancomycin]
- Trough Concentration of vancomycin ([1]; DFI group (n = 50), type 2 diabetes patients): 8.20 ± 2.83 µg/mL
- Trough concentration of vancomycin, range ([1]; DFI patients (n = 50)): 4.80 to 14.2 µg/mL
- Trough Concentration of vancomycin ([1]; Nondiabetic group (n = 50), pneumonia patients): 15.8 ± 5.43 µg/mL
- Trough concentration of vancomycin, range ([1]; nondiabetic patients (n = 50)): 8.60 to 19.5 µg/mL
- Stability in serum (in words) [2]: stable
